Read-outs that look alike come from different tables or passages of the source. Where no end group is shown, it is not given here.
What was measured:
Test in all cases: Direct-binding FRET assay
ATF4 = target: T1, ATF4 (Homo sapiens, UniProt P18848); details: read-out: Kd
T1 construct: made in house
T1 sequence (P18848 278-341 limits assumed): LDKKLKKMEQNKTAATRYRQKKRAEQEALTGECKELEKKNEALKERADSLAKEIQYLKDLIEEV
Experimental: (§1) The direct binding assay was performed manually in 384-well plates and is similar to a previously described assay. Wells were filled with 20 μL of 1 mM TCEP-HCl. A 4 μM stock of acceptor protein was made fresh in 1 mM TCEP-HCl, and 20 μL was titrated in 2-fold dilutions over the wells. […] The direct-binding FRET data were fit as previously described. Briefly, the Kd of the designed peptide homodimer was experimentally determined and used with previously determined target homodimer Kd values to determine the heterodimer Kd. The homodimer Kd values used for the human bZIPs were from; experiments done by […] et al. used the same protein constructs for the human bZIP proteins, the same buffer conditions, and the same assay. The fitting used a system of ordinary differential equations to describe the concentrations of homo and heterodimers formed by the donor (D) and acceptor (A) as a function of the heterodimer Kd. MATLAB was used to simulate the binding experiment for different Kd values, and the value that gave the best agreement between simulation and experiment was assigned. A minimum 15% change in the donor fluorescence upon titrating the acceptor peptide from 0 to 1000 nM was required for a fit to be attempted. If this minimum was not met, the interaction was classified as “NS” for no signal change. […] For such curves, we removed the first five points and re-fit the data.

XBP1 = target: T2, XBP1 (Homo sapiens, UniProt P17861); details: read-out: Kd
T2 construct: made in house
T2 sequence (P17861 70-133 limits assumed): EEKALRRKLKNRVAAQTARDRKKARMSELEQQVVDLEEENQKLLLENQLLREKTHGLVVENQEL
Experimental: as §1

NFE2 = target: T3, NFE2 (Homo sapiens, UniProt Q16621); details: read-out: Kd
T3 construct: made in house
T3 sequence (Q16621 266-329 limits assumed): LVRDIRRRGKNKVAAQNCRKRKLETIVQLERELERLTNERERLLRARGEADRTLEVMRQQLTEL
Experimental: as §1

MAFF = target: T4, MAFF (Homo sapiens, UniProt Q9ULX9); details: read-out: Kd
T4 construct: made in house
T4 sequence (Q9ULX9 51-114 limits assumed): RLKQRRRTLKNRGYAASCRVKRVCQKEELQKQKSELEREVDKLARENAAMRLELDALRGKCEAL
Experimental: as §1

CREB1 = target: T5, CREB1 (Homo sapiens, UniProt P16220); details: read-out: Kd
T5 construct: made in house
T5 sequence (P16220 269-327 limits assumed): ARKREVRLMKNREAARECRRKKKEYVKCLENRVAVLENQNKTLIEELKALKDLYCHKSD
Experimental: as §1

NFE2L3 = target: T6, NFE2L3 (Homo sapiens, UniProt Q9Y4A8); details: read-out: Kd
T6 construct: made in house
T6 sequence (Q9Y4A8 578-641 limits assumed): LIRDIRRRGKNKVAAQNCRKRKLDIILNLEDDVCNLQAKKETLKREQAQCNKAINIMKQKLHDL
Experimental: as §1

ATF3 = target: T7, ATF3 (Homo sapiens, UniProt P18847); details: read-out: Kd
T7 construct: made in house
T7 sequence (P18847 86-149 limits assumed): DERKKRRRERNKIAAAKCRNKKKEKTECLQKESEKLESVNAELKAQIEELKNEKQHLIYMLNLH
Experimental: as §1

MAFB = MAFB (Homo sapiens, UniProt Q9Y5Q3); set-up: made in house; details: mean or single, read-out: Kd
Experimental: (§2) The direct binding assay was performed manually in 384-well plates and is similar to a previously described assay. Wells were filled with 20 μL of 1 mM TCEP-HCl. A 4 μM stock of acceptor protein was made fresh in 1 mM TCEP-HCl, and 20 μL was titrated in 2-fold dilutions over the wells. […] The direct-binding FRET data were fit as previously described. Briefly, the Kd of the designed peptide homodimer was experimentally determined and used with previously determined target homodimer Kd values to determine the heterodimer Kd. The homodimer Kd values used for the human bZIPs were from; experiments done by […] et al. used the same protein constructs for the human bZIP proteins, the same buffer conditions, and the same assay. The fitting used a system of ordinary differential equations to describe the concentrations of homo and heterodimers formed by the donor (D) and acceptor (A) as a function of the heterodimer Kd. MATLAB was used to simulate the binding experiment for different Kd values, and the value that gave the best agreement between simulation and experiment was assigned. A minimum 15% change in the donor fluorescence upon titrating the acceptor peptide from 0 to 1000 nM was required for a fit to be attempted. If this minimum was not met, the interaction was classified as “NS” for no signal change. […] These interactions were marked “AS” to indicate anomalous signal. We attributed this to interactions between the peptides, the dyes and the walls of the assay plates at low concentrations. These curves could not be fit, given their unusual shapes at low concentrations of acceptor. For such curves, we removed the first five points and re-fit the data. […] One example of this is increasing concentrations of acceptor causing an increase in donor fluorescence.

MAF = MAF (Homo sapiens, UniProt O75444); set-up: made in house; details: mean or single, read-out: Kd
Experimental: as §2

[1] = 4°C, C-terminal rhodamine design, mean or single
[2] = 4°C, N-terminal rhodamine design, mean or single
[3] = 4°C, N-terminal rhodamine design, repeat 1
[4] = 4°C, N-terminal rhodamine design, repeat 2
[5] = 23°C, C-terminal rhodamine design, mean or single
[6] = 23°C, N-terminal rhodamine design, repeat 1
[7] = 23°C, N-terminal rhodamine design, mean or single
[8] = 37°C, C-terminal rhodamine design, mean or single
[9] = 37°C, N-terminal rhodamine design, mean or single
[10] = 4°C, C-terminal rhodamine design
[11] = 4°C, N-terminal rhodamine design
[12] = 23°C, C-terminal rhodamine design
[13] = 37°C, C-terminal rhodamine design
[14] = 37°C, N-terminal rhodamine design
[15] = 23°C, N-terminal rhodamine design
[16] = 4°C, C-terminal fluorescein design as donor, TAMRA target titrated
[17] = 23°C, C-terminal fluorescein design as donor, TAMRA target titrated
[18] = 37°C, C-terminal fluorescein design as donor, TAMRA target titrated
[19] = 4°C, C-terminal rhodamine design, repeat 1
[20] = 23°C, C-terminal rhodamine design, repeat 1
[21] = 37°C, C-terminal rhodamine design, repeat 1
[22] = 37°C, C-terminal rhodamine design, repeat 2

“KRIAYLRQRIAELRNENHVLESRIQRMEKEKDALQQDRDHLEYEL [ATF5-d1]” was tested, and the Kd (ATF4; [1]) was 1 nM, the Kd (ATF4; [2]) was > 1000 nM and the Kd (ATF4; [3]) was > 1000 nM. The Kd (ATF4; [4]) was > 1000 nM, the Kd (ATF4; 4°C, N-terminal rhodamine design, repeat 3) was > 1000 nM and the Kd (ATF4; [5]) was 1 nM. For the same sequence, the Kd (ATF4; [6]) was > 5000 nM, the Kd (ATF4; 23°C, N-terminal rhodamine design, repeat 2) was > 5000 nM and the Kd (XBP1; [1]) was > 5000 nM. For the same sequence, the Kd (XBP1; [2]) was > 5000 nM, the Kd (XBP1; [5]) was > 1000 nM and the Kd (XBP1; [7]) was > 5000 nM. For the same sequence, the Kd (XBP1; [8]) was > 1000 nM, the Kd (XBP1; [9]) was > 5000 nM and the Kd (NFE2; [1]) was 162 nM. For the same sequence, the Kd (NFE2; [2]) was > 5000 nM, the Kd (NFE2; [5]) was > 5000 nM and the Kd (NFE2; [7]) was > 1000 nM. The Kd (NFE2; [8]) was > 5000 nM, the Kd (NFE2; [9]) was > 1000 nM and the Kd (MAFF; [1]) was 266 nM. For the same sequence, the Kd (MAFF; [3]) was > 5000 nM, the Kd (MAFF; [5]) was > 5000 nM and the Kd (MAFF; [6]) was > 5000 nM. The Kd (MAFF; [8]) was > 5000 nM, the Kd (MAFF; 37°C, N-terminal rhodamine design, repeat 1) was > 5000 nM and the Kd (CREB1; [1]) was 133 nM. For the same sequence, the Kd (CREB1; [2]) was 506 nM, the Kd (CREB1; [5]) was 589 nM and the Kd (CREB1; [7]) was > 5000 nM. For the same sequence, the Kd (CREB1; [9]) was > 1000 nM, the Kd (NFE2L3; [1]) was > 5000 nM and the Kd (NFE2L3; [2]) was > 1000 nM. For the same sequence, the Kd (NFE2L3; [5]) was > 1000 nM, the Kd (NFE2L3; [7]) was > 1000 nM and the Kd (NFE2L3; [8]) was 911 nM. The Kd (NFE2L3; [9]) was > 1000 nM, the Kd (ATF3; [1]) was > 5000 nM and the Kd (ATF3; [2]) was > 1000 nM. The Kd (ATF3; [5]) was > 5000 nM, the Kd (ATF3; [7]) was > 1000 nM and the Kd (ATF3; [8]) was > 1000 nM. The Kd (ATF3; [9]) was > 1000 nM, the Kd (MAFB; [10]) was 725 nM and the Kd (MAFB; [11]) was > 5000 nM. The Kd (MAFB; [12]) was > 5000 nM, the Kd (MAFB; [13]) was > 1000 nM and the Kd (MAFB; [14]) was > 5000 nM. The Kd (MAF; [10]) was 790 nM, the Kd (MAF; [11]) was > 5000 nM and the Kd (MAF; [12]) was > 5000 nM. For the same sequence, the Kd (MAF; [15]) was > 5000 nM and the Kd (MAF; [13]) was > 1000 nM.

“NQIKTLRTRLSKLRKDNLQLEKDIANLERKAKDLRAEKEQLEYEL [ATF4-d1]” was tested, and the Kd (ATF4; [16]) was 2.3 nM, the Kd (ATF4; [1]) was 1 nM and the Kd (ATF4; [3]) was > 5000 nM. For the same sequence, the Kd (ATF4; [4]) was > 5000 nM, the Kd (ATF4; [17]) was 3.7 nM and the Kd (ATF4; [5]) was 1 nM. The Kd (ATF4; [18]) was 10 nM, the Kd (XBP1; [19]) was > 1000 nM and the Kd (XBP1; [2]) was > 1000 nM. The Kd (XBP1; [20]) was > 1000 nM, the Kd (XBP1; [7]) was > 1000 nM and the Kd (XBP1; [21]) was > 1000 nM. The Kd (XBP1; [9]) was > 1000 nM, the Kd (NFE2; [16]) was 42.4 nM and the Kd (NFE2; [2]) was > 5000 nM. For the same sequence, the Kd (NFE2; [20]) was 200 to 1000 nM, the Kd (NFE2; [7]) was > 1000 nM and the Kd (NFE2; [18]) was > 1000 nM. For the same sequence, the Kd (NFE2; [21]) was > 5000 nM, the Kd (NFE2; [22]) was > 5000 nM and the Kd (NFE2; [9]) was > 1000 nM. The Kd (MAFF; [1]) was > 5000 nM, the Kd (MAFF; [2]) was < 200 nM and the Kd (MAFF; [20]) was > 5000 nM. The Kd (MAFF; 23°C, C-terminal rhodamine design, repeat 2) was < 200 nM, the Kd (MAFF; [7]) was > 1000 nM and the Kd (MAFF; [21]) was < 200 nM. For the same sequence, the Kd (MAFF; [22]) was < 200 nM, the Kd (MAFF; [9]) was > 1000 nM and the Kd (CREB1; [16]) was > 5000 nM. For the same sequence, the Kd (CREB1; [19]) was > 1000 nM, the Kd (CREB1; [2]) was > 5000 nM and the Kd (CREB1; [17]) was > 1000 nM. For the same sequence, the Kd (CREB1; [20]) was > 1000 nM, the Kd (CREB1; [7]) was > 5000 nM and the Kd (CREB1; [18]) was > 1000 nM. For the same sequence, the Kd (CREB1; [21]) was > 5000 nM, the Kd (CREB1; [9]) was > 1000 nM and the Kd (NFE2L3; [19]) was > 5000 nM. For the same sequence, the Kd (NFE2L3; [2]) was > 1000 nM, the Kd (NFE2L3; [20]) was > 5000 nM and the Kd (NFE2L3; [7]) was > 1000 nM. For the same sequence, the Kd (NFE2L3; [21]) was > 5000 nM, the Kd (NFE2L3; [9]) was > 1000 nM and the Kd (ATF3; [19]) was > 1000 nM. The Kd (ATF3; [2]) was > 1000 nM, the Kd (ATF3; [17]) was > 1000 nM and the Kd (ATF3; [20]) was > 1000 nM. The Kd (ATF3; [7]) was > 1000 nM, the Kd (ATF3; [18]) was > 1000 nM and the Kd (ATF3; [21]) was > 1000 nM. For the same sequence, the Kd (ATF3; [9]) was > 1000 nM, the Kd (MAFB; [10]) was > 5000 nM and the Kd (MAFB; [11]) was > 1000 nM. For the same sequence, the Kd (MAFB; [12]) was > 5000 nM, the Kd (MAFB; [15]) was > 1000 nM and the Kd (MAFB; [13]) was 402 nM. The Kd (MAFB; [14]) was > 1000 nM, the Kd (MAF; [10]) was > 5000 nM and the Kd (MAF; [11]) was > 1000 nM. For the same sequence, the Kd (MAF; [12]) was > 5000 nM, the Kd (MAF; [15]) was > 1000 nM and the Kd (MAF; [13]) was 460 nM. The Kd (MAF; [14]) was > 1000 nM.

— PMC4335062, “Data-Driven Prediction and Design of bZIP Coiled-Coil Interactions” (PLoS Computational Biology, 2015)
